Measurements reported in PMC8645336, “Benchmarking a highly selective USP30 inhibitor for enhancement of mitophagy and pexophagy” (Life Science Alliance, 2021).

Target: T1, USP19 (Homo sapiens, UniProt O94966)
T1 sequence (O94966 1-1318): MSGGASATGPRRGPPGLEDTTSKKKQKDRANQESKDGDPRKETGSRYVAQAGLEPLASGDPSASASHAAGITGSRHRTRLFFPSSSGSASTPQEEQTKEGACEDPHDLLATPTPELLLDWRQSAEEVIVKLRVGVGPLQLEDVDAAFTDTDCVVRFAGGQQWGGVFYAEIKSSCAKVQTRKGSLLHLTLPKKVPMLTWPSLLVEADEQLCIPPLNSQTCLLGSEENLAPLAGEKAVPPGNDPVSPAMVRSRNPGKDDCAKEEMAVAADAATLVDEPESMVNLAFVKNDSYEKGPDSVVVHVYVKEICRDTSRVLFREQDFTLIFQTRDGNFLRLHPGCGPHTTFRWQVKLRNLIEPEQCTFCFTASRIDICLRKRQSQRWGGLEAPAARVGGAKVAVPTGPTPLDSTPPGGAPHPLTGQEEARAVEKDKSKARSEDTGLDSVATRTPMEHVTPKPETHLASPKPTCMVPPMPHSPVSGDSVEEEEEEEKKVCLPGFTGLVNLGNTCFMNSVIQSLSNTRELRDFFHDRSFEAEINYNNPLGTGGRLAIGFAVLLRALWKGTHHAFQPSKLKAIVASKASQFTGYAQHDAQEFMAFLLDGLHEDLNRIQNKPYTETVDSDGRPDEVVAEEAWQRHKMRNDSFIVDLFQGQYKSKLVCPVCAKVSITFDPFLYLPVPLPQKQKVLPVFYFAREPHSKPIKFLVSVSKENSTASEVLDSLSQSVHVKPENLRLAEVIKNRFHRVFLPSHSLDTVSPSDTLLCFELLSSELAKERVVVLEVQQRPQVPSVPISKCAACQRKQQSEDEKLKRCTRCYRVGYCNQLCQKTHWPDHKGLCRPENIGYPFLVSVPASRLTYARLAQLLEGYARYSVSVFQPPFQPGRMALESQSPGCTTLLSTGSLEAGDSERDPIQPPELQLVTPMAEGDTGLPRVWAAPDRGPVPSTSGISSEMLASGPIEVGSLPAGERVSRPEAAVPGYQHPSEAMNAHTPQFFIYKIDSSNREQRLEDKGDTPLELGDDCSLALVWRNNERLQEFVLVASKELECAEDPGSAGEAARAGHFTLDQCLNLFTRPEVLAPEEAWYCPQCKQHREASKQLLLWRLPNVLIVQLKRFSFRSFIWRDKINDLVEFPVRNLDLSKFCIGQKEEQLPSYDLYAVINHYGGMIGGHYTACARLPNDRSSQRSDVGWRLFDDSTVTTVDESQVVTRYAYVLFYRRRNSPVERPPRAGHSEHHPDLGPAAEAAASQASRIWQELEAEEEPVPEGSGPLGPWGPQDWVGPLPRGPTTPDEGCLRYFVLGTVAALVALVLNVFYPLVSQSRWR
Experiment: biochemical
Parameters: Ubiquigent DUB profiler selectivity panel, remaining enzyme activity as % of control
Conditions: read-out: % of control remaining
Procedure, shortened: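 In YFP-PRKN-overexpressing hTERT-RPE1 cells, 1 h antimycin A plus oligomycin A (1 μM each) with CMPD-39, then Western blot of TOMM20 ubiquitylation. Target engagement: 2 h compound, then 10 min HA-Ub-PA at 37°C, read as USP30 shift. DUB panel (>40 enzymes) screened at 1-100 μM.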

- remaining activity at 1 µM: 107%
- remaining activity at 10 µM: 99.7%
- remaining activity at 100 µM: 99.8%
SMILES: CC(C)(C)NS(=O)(=O)c1ccc(NC(=O)[C@H](Cc2ccccc2)NC(=O)c2ccc(F)cc2)cc1 [compound 39, CMPD-39]
